Reference: ChEMBL document CHEMBL5321254, “A method for tritiation of iboxamycin permits measurement of its ribosomal binding” (Bioorg Med Chem Lett, 2023)

Legend:
Type in all cases: subcellular
Bacterial 70S ribosome [1] = test: Binding affinity to Escherichia coli ribosomes assessed as apparent inhibition constant by scintillation counter analysis; conditions: read-out: Ki(app)
Bacterial 70S ribosome [2] = test: Binding affinity to Escherichia coli ribosomes assessed as apparent dissociation constant by scintillation counter analysis; conditions: read-out: Kd(app)
[3] = target: Bacterial 70S ribosome (Bacteria) (UniProt P0A7V0+P60723+P0AG67+P0A7R5+P0A7R9+P0A7S3+P0A7S9+P0AG59+P0ADZ4+P0A7T3+P0AG63+P0A7T7+P0A7U3+P0A7U7+P68679+P0A7V3+P0A7V8+P0A7W1+P02358+P02359+P0A7W7+P0A7X3+P0A7J3+P0A7J7+P0AA10+P0ADY3+P02413+P0ADY7+P0AG44+P0C018+P0A7K6+P0A7L0+P0A7L3+P0AG48+P61175+P0ADZ0+P60624+P68919+P0A7L8+P0A7M2+P0A7M6+P60422+P0AG51+P0A7N1+P0A7M9+P0A7N4+P0A7N9+P0A7P5+P0A7Q1+Q2EEQ2+P0A7Q6+P60438+P62399+P0AG55+P0A7K2); test: Potency index, ratio of clindamycin Ki(app) to test compound Ki(app) for binding affinity to Escherichia coli ribosomes

| Compound | Ki (Bacterial 70S ribosome [1]) | Kd (Bacterial 70S ribosome [2]) | Ratio Ki(app) [3] |
| --- | --- | --- | --- |
| CCC[C@@H]1C[C@@H](C(=O)N[C@@H]([C@H]2O[C@H](SC)[C@H](O)[C@@H](O)[C@H]2O)[C@H](C)Cl)N(C)C1 [CLINDAMYCIN] | 2700 nM | – | – |
| CS[C@H]1O[C@H]([C@H](NC(=O)[C@H]2NC[C@@H]3C[C@H](CC(C)C)CCO[C@H]32)[C@H](C)Cl)[C@H](O)[C@H](O)[C@H]1O | 41 nM | 34 nM | 70 |
